One block for each compound: values may come before it. Peptide text beside a SMILES is read from it. * marks the point of attachment. pNA = O=[N+]([O-])c1ccc(N*)cc1; Cbz = O=C(OCc1ccccc1)*
Legend:
Assay type in all cases: biochemical
FXllla = target: T1, FXllla (Homo sapiens, UniProt P00488); test: Initial experiments: cleavage by FXIIIa of Glu(pNA) peptides derived from the Berichrom substrate sequence
T1 sequence (P00488 39-732 limits assumed): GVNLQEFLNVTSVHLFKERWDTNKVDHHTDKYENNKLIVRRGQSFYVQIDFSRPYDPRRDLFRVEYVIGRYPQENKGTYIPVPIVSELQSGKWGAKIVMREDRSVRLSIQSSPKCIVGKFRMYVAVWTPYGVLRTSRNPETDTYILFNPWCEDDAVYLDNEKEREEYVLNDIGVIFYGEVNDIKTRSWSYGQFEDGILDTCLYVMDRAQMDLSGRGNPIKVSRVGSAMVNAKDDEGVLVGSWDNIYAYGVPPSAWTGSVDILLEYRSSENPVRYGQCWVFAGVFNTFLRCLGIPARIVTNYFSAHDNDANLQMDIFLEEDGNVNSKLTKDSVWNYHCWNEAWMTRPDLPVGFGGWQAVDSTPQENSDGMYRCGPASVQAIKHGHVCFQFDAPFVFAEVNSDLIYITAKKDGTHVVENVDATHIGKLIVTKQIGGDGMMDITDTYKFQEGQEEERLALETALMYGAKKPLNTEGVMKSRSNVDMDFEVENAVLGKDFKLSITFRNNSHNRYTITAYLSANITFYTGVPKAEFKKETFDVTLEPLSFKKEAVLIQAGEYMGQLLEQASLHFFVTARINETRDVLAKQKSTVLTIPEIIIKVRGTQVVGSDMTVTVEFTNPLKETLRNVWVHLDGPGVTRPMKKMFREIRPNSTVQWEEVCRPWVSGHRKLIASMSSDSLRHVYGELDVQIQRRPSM

FXIIIa = test: Initial cleavage tests of Glu(pNA)/Glu(AMC) derivatives with FXIIIa (background section); settings: release of pNA or AMC; no conditions given
Description: Nach derzeitigem Wissen existieren neben FXIII bzw. FXllla im Körper derzeit noch 8 weitere Transglutaminasen, dazu zählen TG1-TG7 sowie das Protein epb42, dass allerdings katalytisch unwirksam ist (Wodzinska, Mini Rev. in Med. Chem. 5 (2005) 279-292). Als erste Transglutaminase wurde das inzwischen als TG2 bezeichnete Enzym entdeckt. Dessen Aktivität lässt sich sehr einfach durch UV/VIS-spektroskopische oder fluorimetrische Messungen unter Verwendung simpler Aminosäurederiate nachweisen, beispielsweise durch Abspaltung von p-Nitroanlin aus H-Glu(pNA)-OH oder durch Abspaltung von Aminomethylcoumarin aus H-Glu(AMC)-OH (Smith et al., Anal. Biochem. 100 (1979) 136-139). […] Bisher wurden auch noch keine Peptidderivate beschrieben, die einen Glu(pNA) oder Glu(AMC)-Rest besitzen und gleichzeitig mit ausreichender Effektivität von FXllla unter Freisetzung von pNA oder AMC umgesetzt werden.

Faktor XIIIa [1] = target: T2, Faktor XIIIa (Homo sapiens, UniProt P00488); test: Cleavage of pNA substrates by activated factor XIIIa, absorbance at 405 nm (Michaelis-Menten kinetics and pre-test); settings: for Substratspaltung (Vortest): pre-test at constant substrate concentration, 405 nm; for Substratspaltung (Vortest) / Vmax: 37 °C; for Vmax: change of absorbance at 405 nm per s, enzyme ca. 1,25 Einheiten/ml
T2 construct: Aktivierung des Zymogens FXIII zu Faktor XIIIa; purchased Aventis Behring Fibrogammin HS
T2 sequence (P00488 39-732 limits assumed): T1 sequence (P00488 39-732 limits assumed)
Protocol: 250 Einheiten lyophilisiertes Fibrogammin HS (Aventis Behring) wurden in 4 ml Wasser gelöst, als 100 µl Portionen aliquotiert und bei -80 °C gelagert. 100 µl dieser Lösung enthalten 6,25 Einheiten FXIII.
100 µl des aliqotierten Fibrogammins (entspricht 6,25 Einheiten) wurden mit 500 µl TBS-Puffer (50 mM Tris-HCl, pH 7,5 in 0,9% (w/v) NaCl), 360 µl einer 0.9 % NaCl-Lösung, 10 µl einer 1 M CaCl2-Lösung und 20 µl einer Thrombinlösung (Rinderthrombin: 14,2 U in 20 µl) versetzt. Der Ansatz wurde 20 min bei 37 °C inkubiert, danach wurden 10 µl einer Lösung mit rekombinantem Hirudin zugesetzt (r-Hirudin: HBW 023 mit 13442 IU mg^-1, Stammlösung des r-Hirudin = 1 mg/ml). Dieser Aktivierungsansatz besitzt ein Gesamtvolumen von 1 ml, der aktivierte Faktor Xllla wurde bei 37 °C aufbewahrt und für die folgenden kinetischen Messungen verwendet.
Die Messungen wurden bei 405 nm und 37 °C mit einem Microplate Reader der Firma Labsystems (iEMS Reader MF) mit folgendem Messansatz durchgeführt: • 150 µl TBS-Puffer (siehe oben, der Puffer kann gegebenenfalls auch eine Aminkomponente enthalten, beispielsweise H-Gly-Ethylester oder H-Gly-Gly-Ethylester oder ein anderes Amin, falls vorhanden ist die finale Konzentration des Amins im Messansatz 2,5 mM oder höher) • 50 µl Substratlösung • 50 µl Enzymlösung (im Messansatz ca. 1,25 Einheiten/ml)
Sämtliche Lösungen wurden vor Benutzung bei 37 °C aufbewahrt, vor Zugabe der FXllla-Lösung wurde die Mikroreadermessplatte nochmals 5 min bei 37 °C im Messgerät temperiert. Nach Zugabe der FXllla-Lösung wurde die Substratspaltung gestartet und die Änderung der Absorption bei 405 nm gemessen. Für einen Vortest wurde eine konstante Substratkonzentration verwendet. […] Wir haben vermutet, dass vor allem die Aminosäuren N- und C-terminal des Glu(pNA)-Restes wichtig für die Substraterkennung sind, deshalb wurde das N-terminale Glycin und das an dritter Position befindliche Serin innerhalb der Berichromsequenz durch andere Aminosäurereste ersetzt. Durch den Vortest wurde festgestellt, dass einige dieser Substrate deutlich schneller als die Derivate S1 und S2 gespalten werden. Für ausgewählte Substrate wurden die Substratkonzentrationen im Messansatz variiert und die bestimmten Umsatzgeschwindigkeiten als Funktion der Substratkonzentration entsprechend der Michaelis-Menten-Gleichung v=Vmax·[S]/(Km+[S]) aufgetragen und somit die kinetischen Konstanten Km und Vmax bestimmt, wobei Vmax in der Einheit Absorptionsänderung bei 405 nm/s erhalten wurde. Dies ist in Fig. 1 und Fig. 2 gezeigt.

Faktor XIIIa [2] = target: T2, Faktor XIIIa; test: Cleavage of AMC substrates by activated factor XIIIa, fluorescence plate reader (Michaelis-Menten kinetics); settings: λEX = 380 nm, λEm = 460 nm, room temperature, enzyme ca. 0,893 Einheiten/ml
Protocol: Die Aliquotierung des Zymogens Faktor XIII und Aktivierung des Zymogens FXIII zu Faktor XIIIa erfolgten analog der in Beispiel 3 beschriebenen Prozedur.
Sämtliche Lösungen wurden bei Raumtemperatur aufbewahrt. Die Bestimmung der Spaltung der AMC-Substrate durch FXllla wurde mit einem Fluoreszenz-Plattenreader Safire^2 der Firma Tecan (λEX = 380 nm, λEm = 460 nm) bei Raumtemperatur durchgeführt. • 100 µl TBS-Puffer (siehe oben, der Puffer kann gegebenenfalls auch eine Aminkomponente enthalten, beispielsweise H-Gly-Ethylester oder H-Gly-Gly-Ethylester oder ein anderes Amin) • 50 µl Substratlösung • 25 µl Enzymlösung (im Messansatz ca. 0,893 Einheiten/ml)
Die Michaelis-Menten-Auftragung für die AMC-enthaltenden Substrate ist in Fig. 3 gezeigt.

SMILES: CC[C@H](C)[C@H](NC(=O)[C@@H](NC(=O)[C@H](CCCCN)NC(=O)[C@H](CO)NC(=O)[C@H](CCC(=O)Nc1ccc([N+](=O)[O-])cc1)NC(C)=O)C(C)C)C(=O)NCC(N)=O [Ac-Glu(pNA)-Ser-Lys-Val-Ile-Gly-NH2] (Ac-E(pNA)SKVIG-NH2)
Spaltung durch FXllla (FXllla): fast gar nicht oder nur sehr langsam gepalten

SMILES: Cc1cc(=O)oc2cc(NC(=O)CC[C@H](N)C(=O)O)ccc12 [H-Glu(AMC)-OH]
Spaltung durch FXIIIa (FXIIIa): nicht gespalten

SMILES: N[C@@H](CCC(=O)Nc1ccc([N+](=O)[O-])cc1)C(=O)O [H-Glu(pNA)-OH]
Spaltung durch FXIIIa (FXIIIa): nicht gespalten

SMILES: CC[C@H](C)[C@H](NC(=O)[C@@H](NC(=O)[C@H](CCCCN)NC(=O)[C@H](CO)NC(=O)[C@@H](N)CCC(=O)Nc1ccc([N+](=O)[O-])cc1)C(C)C)C(=O)NCC(N)=O [H-Glu(pNA)-Ser-Lys-Val-Ile-Gly-NH2] (H-E(pNA)SKVIG-NH2)
Spaltung durch FXllla (FXllla): fast gar nicht oder nur sehr langsam gepalten

SMILES: CC[C@H](C)[C@H](NC(=O)[C@@H](NC(=O)[C@H](CCCCN)NC(=O)[C@H](CO)NC(=O)[C@H](CCC(=O)Nc1ccc([N+](=O)[O-])cc1)NC(=O)CNC(=O)[C@@H]1CCCN1C(=O)CN)C(C)C)C(=O)NCC(N)=O [H-Gly-Pro-Gly-Glu(pNA)-Ser-Lys-Val-Ile-Gly-NH2] (H-GPGE(pNA)SKVIG-NH2)
Spaltung durch FXllla (FXllla): fast gar nicht oder nur sehr langsam gepalten

Spaltung durch FXllla (FXllla): nur sehr langsam von FXllla gepalten
SMILES: CC[C@H](C)[C@H](NC(=O)[C@@H](NC(=O)[C@H](CCCCN)NC(=O)[C@H](CO)NC(=O)[C@H](CCC(=O)Nc1ccc([N+](=O)[O-])cc1)NC(=O)CNC(=O)[C@@H]1CCCN1C(=O)CNC(=O)[C@@H](N)CC(C)C)C(C)C)C(=O)NCC(N)=O [H-Leu-Gly-Pro-Gly-Glu(pNA)-Ser-Lys-Val-Ile-Gly-NH2] (H-LGPGE(pNA)SKVIG-NH2)

SMILES: CC[C@H](C)[C@H](NC(=O)[C@@H](NC(=O)[C@H](CCCCN)NC(=O)[C@H](CO)NC(=O)[C@H](CCC(=O)Nc1ccc([N+](=O)[O-])cc1)NC(=O)CNC(=O)[C@@H]1CCCN1)C(C)C)C(=O)NCC(N)=O [H-Pro-Gly-Glu(pNA)-Ser-Lys-Val-Ile-Gly-NH2] (H-PGE(pNA)SKVIG-NH2)
Spaltung durch FXllla (FXllla): fast gar nicht oder nur sehr langsam gepalten

Substratspaltung (Vortest) (Faktor XIIIa [1]): praktisch kaum gespalten
SMILES: CC(C)C[C@H](NC(=O)[C@@H]1CCCN1C(=O)[C@H](CO)NC(=O)[C@@H](NC(=O)[C@H](CC(N)=O)NC(=O)[C@H](CCC(=O)O)NC(=O)[C@H](CCC(=O)Nc1ccc([N+](=O)[O-])cc1)NC(=O)[C@@H](N)CC(N)=O)C(C)C)C(N)=O [Substrat S1, H-Asn-Glu(pNA)-Glu-Asn-Val-Ser-Pro-Leu-NH2] (H-NE(pNA)ENVSPL-NH2)

Substratspaltung (Vortest) (Faktor XIIIa [1]): nur langsam umgesetzt
SMILES: CC[C@H](C)[C@H](NC(=O)[C@@H](NC(=O)[C@H](CCCCN)NC(=O)[C@H](CO)NC(=O)[C@H](CCC(=O)Nc1ccc([N+](=O)[O-])cc1)NC(=O)CN)C(C)C)C(=O)NCC(N)=O [Substrat S2, H-Gly-Glu(pNA)-Ser-Lys-Val-Ile-Gly-NH2] (H-GE(pNA)SKVIG-NH2)

SMILES: CC[C@H](C)[C@H](NC(=O)[C@@H](NC(=O)[C@H](CCCCN)NC(=O)[C@@H](NC(=O)[C@H](CCC(=O)Nc1ccc([N+](=O)[O-])cc1)NC(=O)[C@@H](N)Cc1ccc(O)cc1)C(C)C)C(C)C)C(=O)NCC(N)=O [Substrat S10, H-Tyr-Glu(pNA)-Val-Lys-Val-Ile-Gly-NH2] (H-YE(pNA)VKVIG-NH2)
Vmax (Faktor XIIIa [1]; pNA substrates): 0,95 × 10^-4 dOD/s

SMILES: CC[C@H](C)[C@H](NC(=O)[C@@H](NC(=O)[C@H](CCCCN)NC(=O)[C@@H](NC(=O)[C@H](CCC(=O)Nc1ccc([N+](=O)[O-])cc1)NC(=O)[C@@H](N)Cc1ccc(O)cc1)C(C)C)C(C)C)C(N)=O [Substrat S12, H-Tyr-Glu(pNA)-Val-Lys-Val-Ile-NH2] (H-YE(pNA)VKVI-NH2)
Vmax (Faktor XIIIa [1]; pNA substrates): 1.33 × 10^-4 dOD/s

SMILES: CC[C@H](C)[C@H](NC(=O)[C@@H](NC(=O)[C@H](CCCNC(=N)N)NC(=O)[C@@H](NC(=O)[C@H](CCC(=O)Nc1ccc([N+](=O)[O-])cc1)NC(=O)[C@@H](N)Cc1ccc(O)cc1)C(C)C)C(C)C)C(=O)NCC(N)=O [Substrat S16, H-Tyr-Glu(pNA)-Val-Arg-Val-Ile-Gly-NH2] (H-YE(pNA)VRVIG-NH2)
Eignung als Substrat (Faktor XIIIa [1]; pNA substrates, see Fig. 2): geeignete Substrate | Vmax (Faktor XIIIa [1]; pNA substrates): 0,8 × 10^-4 dOD/s

Vmax (Faktor XIIIa [2]): 9,61 dRFU/s
SMILES: CC[C@H](C)[C@H](NC(=O)[C@@H](NC(=O)[C@H](CCCCN)NC(=O)[C@@H](NC(=O)[C@H](CCC(=O)Nc1ccc([N+](=O)[O-])cc1)NC(=O)[C@@H](N)CCCCN)C(C)C)C(C)C)C(=O)NCC(N)=O [Substrat S18, H-Lys-Glu(pNA)-Val-Lys-Val-Ile-Gly-NH2] (H-KE(pNA)VKVIG-NH2)

Vmax (Faktor XIIIa [2]): 11,99 dRFU/s
SMILES: CC[C@H](C)[C@H](NC(=O)[C@@H](NC(=O)[C@H](CCCCN)NC(=O)[C@H](CCCCNC(=O)OCc1ccccc1)NC(=O)[C@H](CCC(=O)Nc1ccc([N+](=O)[O-])cc1)NC(=O)[C@@H](N)Cc1c[nH]cn1)C(C)C)C(=O)NCC(N)=O [Substrat S19, H-His-Glu(pNA)-Lys(Z)-Lys-Val-Ile-Gly-NH2] (H-HE(pNA)K(Cbz)KVIG-NH2)

— EP2348038A1, “Method for determining the activity of transglutaminase factor XIIIa” (PHILIPPS-UNIVERSITÄT MARBURG, priority 2010, dated 2011)
